# Results reported in patent US12509445B2, “Herbicidally active 4-cyclopropyl-6-[4-(trifluormethyl)pyrazol-1-yl)]pyrimidines” (Bayer Aktiengesellschaft, priority 2019, dated 2025).
# How the values were obtained:
# Assay type in all cases: in vivo
# [1] = test system: harmful plants such as Abutilon theophrasti, Alopecurus myosuroides, Amaranthus retroflexus, Avena fatua, Echinochloa crus-galli, Matricaria inodora, Pharbitis …; assay: Post-emergence herbicidal action, summary in text; conditions: post-emergence treatment
# Description: (§1) Seeds of monocotyledonous and dicotyledonous weeds and crop plants are placed in sandy loam in plastic or organic plant pots, covered with soil and cultivated in a greenhouse under controlled growth conditions. 2 to 3 weeks after sowing, the test plants are treated at the one-leaf stage. The compounds of the invention, formulated in the form of wettable powders (WP) or as emulsion concentrates (EC), are then sprayed onto the green parts of the plants as aqueous suspension or emulsion with addition of 0.5% additive at a water application rate of 600 l/ha (converted). After the test plants have been kept in the greenhouse under optimum growth conditions for about 3 weeks, the activity of the preparations is rated visually in comparison to untreated controls. For example, 100% activity=the plants have died, 0% activity=like control plants.
# In this case, for example, in the post-emergence process, the compounds No. 1-001 and 111-001 have very good herbicidal activity (80% to 100% herbicidal action) against harmful plants such as Abutilon theophrasti, Alopecurus myosuroides, Amaranthus retroflexus, Avena fatua, Echinochloa crus-galli, Matricaria inodora, Pharbitis purpurea, Setaria viridis, Stellaria media, Veronica persica and Viola tricolor at an application rate of 0.32 kg of active substance or less per hectare. At the same time, some compounds according to the invention leave graminaceous crops such as barley, wheat, rye, millet/sorghum, maize, rice or sugarcane virtually undamaged when applied by the post-emergence method, even at high active compound dosages. Some substances are additionally also benign to dicotyledonous crops such as soya, cotton, oilseed rape or sugarbeet.
# [2] = test system: Echinochloa crus-galli (ECHCG); assay: Pre-emergence herbicidal action; conditions: for Herbicidal action against ECHCG: 80 g of a.i./ha, comparative test; for Pre-emergence action ECHCG: 320 g/ha, visual scoring after about 3 weeks vs untreated controls, 100% = plants have died
# Text: (§2) The abbreviations used here have the following meanings: • ABUTH Abutilon theophrasti • AMARE Amaranlhus retroflexus • CYPES Cyperus serotinus • ECHCGEchinocloa crus galli • LOLRI Lolium rigidum Gaudin • PHBPU Pharbitis purpurcum • SETVI Setaria viridis • VERPE Veronica persica • ALOMY Alopccurus myosuroides • AVEFA Avena fatua • DIGSA Digitaria sanguinalis • LOLMU Lolium multiflorum • MATIN Matricaria inodora • POLCO Polygonum convolvulus • STEME Stellaria media • VIOTR Viola tricolor
# (§3) Seeds of monocotyledonous and dicotyledonous weed plants and crop plants are placed in plastic or organic plant pots and covered with soil. The compounds of the invention, formulated in the form of wettable powders (WP) or as emulsion concentrates (EC), are then applied onto the surface of the covering soil as aqueous suspension or emulsion with addition of 0.5% additive at a water application rate of 600 l/ha (converted). After the treatment, the pots are placed in a greenhouse and kept under good growth conditions for the trial plants. After about 3 weeks, the effect of the preparations is scored visually in comparison with untreated controls as percentages. For example, 100% activity=the plants have died, 0% activity=like control plants.
# (§4) The compounds according to the invention were tested by the post-emergence and pre-emergence methods under the conditions described above for comparative purposes with the structurally closest compounds known from WO 2005/089551 A1 (D1).
# [3] = test system: Matricaria inodora (MATIN); assay: Pre-emergence herbicidal action; conditions: for Herbicidal action against MATIN: 80 g of a.i./ha, comparative test; for Pre-emergence action MATIN: 320 g/ha, visual scoring after about 3 weeks vs untreated controls, 100% = plants have died
# Text: as §2, §3, §4
# [4] = test system: Setaria viridis (SETVI); assay: Pre-emergence herbicidal action; conditions: for Herbicidal action against SETVI: 80 g of a.i./ha, comparative test; for Pre-emergence action SETVI: 320 g/ha, visual scoring after about 3 weeks vs untreated controls, 100% = plants have died
# Text: as §2, §3, §4
# [5] = test system: Stellaria media (STEME); assay: Pre-emergence herbicidal action; conditions: for Herbicidal action against STEME: 80 g of a.i./ha, comparative test; for Pre-emergence action STEME: 320 g/ha, visual scoring after about 3 weeks vs untreated controls, 100% = plants have died
# Text: as §2, §3, §4
# [6] = test system: Alopecurus myosuroides (ALOMY); assay: Pre-emergence herbicidal action; conditions: for Herbicidal action against ALOMY: 80 g of a.i./ha, comparative test; for Pre-emergence action ALOMY: 320 g/ha, visual scoring after about 3 weeks vs untreated controls, 100% = plants have died
# Text: as §2, §3, §4
# [7] = test system: Viola tricolor (VIOTR); assay: Pre-emergence herbicidal action; conditions: for Herbicidal action against VIOTR: 80 g of a.i./ha, comparative test; for Pre-emergence action VIOTR: 320 g/ha, visual scoring after about 3 weeks vs untreated controls, 100% = plants have died
# Text: as §2, §3, §4
# [8] = test system: Polygonum convolvulus (POLCO); assay: Pre-emergence herbicidal action; conditions: for Herbicidal action against POLCO: 80 g of a.i./ha, comparative test; for Pre-emergence action POLCO: 320 g/ha, visual scoring after about 3 weeks vs untreated controls, 100% = plants have died
# Text: as §2, §3, §4
# [9] = test system: Pharbitis purpurea (PHBPU); assay: Post-emergence herbicidal action; conditions: 320 g/ha, visual rating after about 3 weeks vs untreated controls, 100% = plants have died
# Description: as §1, §2
# [10] = test system: Amaranthus retroflexus (AMARE); assay: Post-emergence herbicidal action; conditions: 320 g/ha, visual rating after about 3 weeks vs untreated controls, 100% = plants have died
# Description: as §1, §2
# [11] = test system: Viola tricolor (VIOTR); assay: Post-emergence herbicidal action; conditions: 320 g/ha, visual rating after about 3 weeks vs untreated controls, 100% = plants have died
# Description: as §1, §2
# [12] = test system: Veronica persica (VERPE); assay: Post-emergence herbicidal action; conditions: 320 g/ha, visual rating after about 3 weeks vs untreated controls, 100% = plants have died
# Description: as §1, §2
# [13] = test system: Pharbitis purpurea (PHBPU); assay: Pre-emergence herbicidal action; conditions: 320 g/ha, visual scoring after about 3 weeks vs untreated controls, 100% = plants have died
# Text: as §2, §3
# [14] = test system: Amaranthus retroflexus (AMARE); assay: Pre-emergence herbicidal action; conditions: 320 g/ha, visual scoring after about 3 weeks vs untreated controls, 100% = plants have died
# Text: as §2, §3
# [15] = test system: Lolium multiflorum (LOLMU); assay: Pre-emergence herbicidal action; conditions: 320 g/ha, visual scoring after about 3 weeks vs untreated controls, 100% = plants have died
# Text: as §2, §3
# [16] = test system: Avena fatua (AVEFA); assay: Pre-emergence herbicidal action; conditions: 320 g/ha, visual scoring after about 3 weeks vs untreated controls, 100% = plants have died
# Text: as §2, §3
# [17] = test system: Veronica persica (VERPE); assay: Pre-emergence herbicidal action; conditions: 320 g/ha, visual scoring after about 3 weeks vs untreated controls, 100% = plants have died
# Text: as §2, §3
# [18] = test system: Abutilon theophrasti (ABUTH); assay: Pre-emergence herbicidal action; conditions: 320 g/ha, visual scoring after about 3 weeks vs untreated controls, 100% = plants have died
# Text: as §2, §3
# [19] = test system: harmful plants such as Alopecurus myosuroides, Amaranthus retroflexus, Avena fatua, Echinochloa crus-galli, Matricaria inodora, Pharbitis purpurea, Polygonum …; assay: Pre-emergence herbicidal action, summary in text; conditions: pre-emergence treatment
# Text: as §3
# At the same time, some compounds according to the invention leave graminaceous crops such as barley, wheat, rye, millet/sorghum, maize, rice or sugarcane virtually undamaged when applied by the pre-emergence method, even at high active compound dosages. Some compounds are additionally also benign to dicotyledonous crops such as soya, cotton, oilseed rape or sugarbeet.
# [20] = test system: Echinochloa crus-galli (ECHCG); assay: Post-emergence herbicidal action; conditions: for Herbicidal action against ECHCG: 80 g of a.i./ha, comparative test; for Post-emergence action ECHCG: 320 g/ha, visual rating after about 3 weeks vs untreated controls, 100% = plants have died
# Description: as §1, §2, §4
# [21] = test system: Matricaria inodora (MATIN); assay: Post-emergence herbicidal action; conditions: for Herbicidal action against MATIN: 80 g of a.i./ha, comparative test; for Post-emergence action MATIN: 320 g/ha, visual rating after about 3 weeks vs untreated controls, 100% = plants have died
# Description: as §1, §2, §4
# [22] = test system: Setaria viridis (SETVI); assay: Post-emergence herbicidal action; conditions: for Herbicidal action against SETVI: 80 g of a.i./ha, comparative test; for Post-emergence action SETVI: 320 g/ha, visual rating after about 3 weeks vs untreated controls, 100% = plants have died
# Description: as §1, §2, §4
# [23] = test system: Stellaria media (STEME); assay: Post-emergence herbicidal action; conditions: for Herbicidal action against STEME: 80 g of a.i./ha, comparative test; for Post-emergence action STEME: 320 g/ha, visual rating after about 3 weeks vs untreated controls, 100% = plants have died
# Description: as §1, §2, §4
# [24] = test system: Lolium multiflorum (LOLMU); assay: Post-emergence herbicidal action; conditions: for Herbicidal action against LOLMU: 80 g of a.i./ha, comparative test
# Description: as §1, §2, §4
# [25] = test system: Alopecurus myosuroides (ALOMY); assay: Post-emergence herbicidal action
# Description: as §1, §2, §4
# [26] = test system: Avena fatua (AVEFA); assay: Post-emergence herbicidal action; conditions: for Herbicidal action against AVEFA: 80 g of a.i./ha, comparative test; for Post-emergence action AVEFA: 320 g/ha, visual rating after about 3 weeks vs untreated controls, 100% = plants have died
# Description: as §1, §2, §4
# [27] = test system: Polygonum convolvulus (POLCO); assay: Post-emergence herbicidal action; conditions: for Post-emergence action POLCO: 320 g/ha, visual rating after about 3 weeks vs untreated controls, 100% = plants have died
# Description: as §1, §2, §4
# [28] = test system: Abutilon theophrasti (ABUTH); assay: Post-emergence herbicidal action; conditions: for Herbicidal action against ABUTH: 80 g of a.i./ha, comparative test; for Post-emergence action ABUTH: 320 g/ha, visual rating after about 3 weeks vs untreated controls, 100% = plants have died
# Description: as §1, §2, §4
# [29] = 320 g/ha, visual rating after about 3 weeks vs untreated controls, 100% = plants have died
# [30] = 80 g of a.i./ha, comparative test
compound,measurement,setting,value
Cn1nc(C(F)(F)F)cc1Oc1nc(C2CC2)cc(-n2cc(C(F)(F)F)cn2)n1 [III-001],herbicidal action against harmful plants (in words),[1],good herbicidal action
same,Herbicidal action against ECHCG,[2],100%
same,Pre-emergence action ECHCG,[2],100%
same,Herbicidal action against MATIN,[3],100%
same,Pre-emergence action MATIN,[3],100%
same,Herbicidal action against SETVI,[4],100%
same,Pre-emergence action SETVI,[4],100%
same,Herbicidal action against STEME,[5],90%
same,Pre-emergence action STEME,[5],100%
same,Herbicidal action against ALOMY,[6],100%
same,Pre-emergence action ALOMY,[6],100%
same,Herbicidal action against VIOTR,[7],100%
same,Pre-emergence action VIOTR,[7],100%
same,Herbicidal action against POLCO,[8],90%
same,Pre-emergence action POLCO,[8],90%
same,Post-emergence action PHBPU,[9],100%
same,Post-emergence action AMARE,[10],100%
same,Post-emergence action VIOTR,[11],100%
same,Post-emergence action VERPE,[12],100%
same,Pre-emergence action PHBPU,[13],100%
same,Pre-emergence action AMARE,[14],90%
same,Pre-emergence action LOLMU,[15],90%
same,Pre-emergence action AVEFA,[16],90%
same,Pre-emergence action VERPE,[17],100%
same,Pre-emergence action ABUTH,[18],90%
same,herbicidal action against harmful plants (in words),[19],good herbicidal action
same,Herbicidal action against ECHCG,[20],80%
same,Post-emergence action ECHCG,[20],90%
same,Herbicidal action against MATIN,[21],80%
same,Post-emergence action MATIN,[21],90%
same,Herbicidal action against SETVI,[22],90%
same,Post-emergence action SETVI,[22],100%
same,Herbicidal action against STEME,[23],90%
same,Post-emergence action STEME,[23],100%
same,Herbicidal action against LOLMU,[24],70%
same,Post-emergence action LOLMU,[24]; [29],90%
same,Herbicidal action against ALOMY,[25]; [30],70%
same,Post-emergence action ALOMY,[25]; [29],90%
same,Herbicidal action against AVEFA,[26],80%
same,Post-emergence action AVEFA,[26],90%
same,Herbicidal action against POLCO,[27]; [30],90%
same,Post-emergence action POLCO,[27],90%
same,Herbicidal action against ABUTH,[28],90%
same,Post-emergence action ABUTH,[28],90%
FC(F)(F)c1cnn(-c2cc(C3CC3)nc(Oc3csc(C(F)(F)F)c3)n2)c1 [IV-001],herbicidal action against harmful plants (in words),[1],good herbicidal action
same,Herbicidal action against ECHCG,[2],70%
same,Pre-emergence action ECHCG,[2],100%
same,Herbicidal action against MATIN,[3],90%
same,Pre-emergence action MATIN,[3],100%
same,Herbicidal action against SETVI,[4],90%
same,Pre-emergence action SETVI,[4],90%
same,Herbicidal action against STEME,[5],90%
same,Pre-emergence action STEME,[5],100%
same,Herbicidal action against ALOMY,[6],70%
same,Pre-emergence action ALOMY,[6],100%
same,Herbicidal action against VIOTR,[7],90%
same,Pre-emergence action VIOTR,[7],90%
same,Herbicidal action against POLCO,[8],20%
same,Pre-emergence action POLCO,[8],80%
same,Post-emergence action PHBPU,[9],80%
same,Post-emergence action AMARE,[10],100%
same,Post-emergence action VIOTR,[11],90%
same,Post-emergence action VERPE,[12],100%
same,Pre-emergence action AMARE,[14],100%
same,Pre-emergence action VERPE,[17],90%
same,Herbicidal action against ECHCG,[20],70%
same,Post-emergence action ECHCG,[20],80%
same,Herbicidal action against MATIN,[21],80%
same,Post-emergence action MATIN,[21],90%
same,Herbicidal action against SETVI,[22],70%
same,Post-emergence action SETVI,[22],80%
same,Herbicidal action against STEME,[23],100%
same,Post-emergence action STEME,[23],100%
same,Herbicidal action against LOLMU,[24],40%
same,Herbicidal action against AVEFA,[26],60%
same,Post-emergence action AVEFA,[26],80%
same,Post-emergence action POLCO,[27],90%
same,Herbicidal action against ABUTH,[28],80%
same,Post-emergence action ABUTH,[28],90%
